Results on five compounds are retold here after patent US8753875B2, “Compositions and means for diagnosing microbial infections” (priority 2007, dated 2014).

The subject of experiment [1] is E. coli. The conditions noted are these: cited from earlier work.
Experiment [2] deals with E. coli. As to conditions: 1142 E. coli outpatient urinary isolates, USA and Canada; cited from earlier work.
A further experiment relates to Candida spp. Nature of the experiment: Growth on Flexicult plate, susceptibility/resistance to the five antibiotics (FIG. 4, Table A). Format: cell-based. From the text:
(§1) The kit was developed for urine culture in the primary health care setting. It is designed preferably as a nine cm Petri dish divided into six compartments: One larger compartment for quantitative analysis and five smaller compartments for susceptibility testing. The agar in each small compartment contains one of five antimicrobials (for Denmark and Scandinavia preferably: trimethoprim, sulfamethizole, ampicillin, nitrofurantoin and mecillinam (amdinocillin)) at a concentration adjusted to the breakpoint, such that growth in these compartments indicates resistance, and no growth indicates susceptibility. The Petri dish preferably has higher sides, approximately 2.48 cm, than the usual dish, i.e. ca. 1.48 cm. This allows a larger amount, maximum 100 ml, of urine to be poured onto the dish for inoculation.
(§2) Reading the susceptibility of the bacterial growth: Each bacterium (if more than one) is read individually: The growth in each of the antibiotic fields is compared with the growth on the control agar. […] If there is no growth (or substantially less than the control agar), then the bacterium is considered to be susceptible to the antibiotic. […] When nitrofurantoin and mecillinam are used as antibiotics, a few single colonies may be seen of the same type as the bacterium on the control agar: These are not considered to be resistant mutants but “persisters,” i.e. if retested they will appear susceptible. This is commonly seen also by disc diffusion especially for mecillinam.

For the next experiment, the system named is Citrobacter spp. The experiment is described as above. Format: cell-based.
Source text: as §1, §2

The subject of experiment [3] is E. coli. Described as above. Format: cell-based.
Source text: as §1, §2

The test system of another experiment is E. faecalis. The description is as above. Format: cell-based.
Source text: as §1, §2

In a further experiment the test system is E. faecium. The experiment is described as above. Format: cell-based.
Source text: as §1, §2

For another experiment, the system named is Enterobacter spp. The description is as above. Format: cell-based.
Source text: as §1, §2

In a further experiment the test system is Klebsiella spp. The description is as above. It is filed as cell-based.
Source text: as §1, §2

The next experiment deals with Morganella spp. The experiment is described as above. It is filed as cell-based.
Source text: as §1, §2

The test system of a further experiment is P. aureginosa. The experiment is described as above. Format: cell-based.
Source text: as §1, §2

A further experiment has as its system P. vulgaris. The description is as above. It is filed as cell-based.
Source text: as §1, §2

For the next experiment, the system named is Proteus mirabilis. The description is as above. Format: cell-based.
Source text: as §1, §2

Another experiment relates to S. saprophyticus. The experiment is described as above. It is filed as cell-based.
Source text: as §1, §2

Experiment [4] has as its system E. coli. Nature of the experiment: Growth of E. coli in antibiotic compartments of the platform (FIG. 3). Format: cell-based. The conditions noted are these: illustrated E. coli of FIG. 3. The text has this:
The photos show growth of E. coli at different quantities of bacteria/ml urine.

Where two headings read alike, the source gives them in different places.

In the case of `O=C(O)c1cn(C2CC2)c2cc(N3CCNCC3)c(F)cc2c1=O` [CIP, 1-cyclopropyl-6-fluoro-4-oxo-7-piperazin-1-yl-quinoline-3-carboxylic acid], the “Antimicrobial resistance of E. coli (resistance in percent)” value is 0% in the experiment on E. coli [1] (Austria, n 126); 2.9% in the experiment on E. coli [1] (Belgium, n 137); 0% in the experiment with E. coli [1] (Canada, n 166); 0% in the experiment with E. coli [1] (Denmark, n 85); 0.5% with E. coli [1] (Finland, n 182); 2.0% with E. coli [1] (France, n 199). In addition, the “Antimicrobial resistance of E. coli (resistance in percent)” value with E. coli [1] (Germany, n 138) is reported as 2.2%; in the experiment on E. coli [1] (Greece, n 132), 1.5%; in the experiment with E. coli [1] (Ireland, n 154), 0%; in the experiment with E. coli [1] (Luxembourg, n 24), 4.2%; in the experiment with E. coli [1] (Norway, n 168) it was 0%; in the experiment on E. coli [1] (Portugal, n 86) it was 5.8%. The “Antimicrobial resistance of E. coli (resistance in percent)” value in the experiment on E. coli [1] (Spain, n 191) is reported as 14.7%; with E. coli [1] (Sweden, n 193), 0%; in the experiment with E. coli [1] (Switzerland, n 122), 2.5%; in the experiment on E. coli [1] (The Netherlands, n 195), 2.1%; with E. coli [1] (Total, n 2478), 2.3%; in the experiment with E. coli [1] (United Kingdom, n 180) it was 0.6%. Also, in the experiment with E. coli [2], the “Overall resistance in E. coli” value is 5.5%.

In the case of `Cc1nnc(NS(=O)(=O)c2ccc(N)cc2)s1` [Sulfamethizole], the “Susceptibility = S or Resistance = R” value with Candida spp. is “R”; in the experiment on Citrobacter spp., “S”; in the experiment on E. coli [3], “R”; in the experiment on E. faecalis, “R”; in the experiment with E. faecium, “R”; in the experiment with Enterobacter spp it was “R”. Moreover, the “Susceptibility = S or Resistance = R” value was “S” in the experiment on Klebsiella spp.; “S” with Morganella spp.; “R” with P. aureginosa; “S” in the experiment on P. vulgaris; “S” in the experiment with Proteus mirabilis; “S” with S. saprophyticus. For the same compound, the “resistant or susceptible (growth in antibiotic compartment)” value with E. coli [4] is listed as “resistant”.

As to `C[C@H]1COc2c(N3CCN(C)CC3)c(F)cc3c(=O)c(C(=O)O)cn1c23` [levofloxacin, (−)-(S)-9-fluoro-2,3-dihydro-3-methyl-10-(4-methyl-1-piperazinyl)-7-oxo-7H-pyrido [1,2,3-de]-1,4-benzoxazine-6-carboxylic acid], the “Overall resistance in E. coli” value in the experiment with E. coli [2] is given as 5.1%.

For co-amoxiclav [AMC], the “Antimicrobial resistance of E. coli (resistance in percent)” value in the experiment on E. coli [1] (Austria, n 126) is listed as 2.4%; with E. coli [1] (Belgium, n 137), 2.9%; with E. coli [1] (Canada, n 166) it was 3.6%; in the experiment with E. coli [1] (Denmark, n 85) it was 1.2%; with E. coli [1] (Finland, n 182), 4.9%; in the experiment with E. coli [1] (France, n 199), 1.5%. Also, the “Antimicrobial resistance of E. coli (resistance in percent)” value in the experiment on E. coli [1] (Germany, n 138) is given as 2.2%; in the experiment with E. coli [1] (Greece, n 132), 0.8%; in the experiment on E. coli [1] (Ireland, n 154) it was 5.8%; in the experiment with E. coli [1] (Luxembourg, n 24), 0%; in the experiment with E. coli [1] (Norway, n 168), 3.6%; with E. coli [1] (Portugal, n 86), 9.3%. In addition, the “Antimicrobial resistance of E. coli (resistance in percent)” value in the experiment with E. coli [1] (Spain, n 191) is listed as 4.2%; in the experiment on E. coli [1] (Sweden, n 193), 5.7%; in the experiment with E. coli [1] (Switzerland, n 122), 2.5%; in the experiment on E. coli [1] (The Netherlands, n 195), 2.6%; with E. coli [1] (Total, n 2478), 3.4%; in the experiment on E. coli [1] (United Kingdom, n 180) it was 2.8%.

On to trimethoprim/sulfamethoxazole [SXT], for which the “Antimicrobial resistance of E. coli (resistance in percent)” value is on record as 9.5% with E. coli [1] (Austria, n 126); 14.6% in the experiment on E. coli [1] (Belgium, n 137); 12.0% with E. coli [1] (Canada, n 166); 8.2% in the experiment on E. coli [1] (Denmark, n 85); 4.9% in the experiment on E. coli [1] (Finland, n 182); 15.1% with E. coli [1] (France, n 199). In addition, the “Antimicrobial resistance of E. coli (resistance in percent)” value with E. coli [1] (Germany, n 138) is recorded as 21.0%; in the experiment on E. coli [1] (Greece, n 132), 11.4%; with E. coli [1] (Ireland, n 154), 20.8%; in the experiment with E. coli [1] (Luxembourg, n 24), 16.7%; in the experiment on E. coli [1] (Norway, n 168), 11.3%; in the experiment with E. coli [1] (Portugal, n 86), 26.7%. Besides, the “Antimicrobial resistance of E. coli (resistance in percent)” value in the experiment on E. coli [1] (Spain, n 191) is on record as 25.7%; in the experiment on E. coli [1] (Sweden, n 193), 8.3%; in the experiment with E. coli [1] (Switzerland, n 122), 18.9%; with E. coli [1] (The Netherlands, n 195), 10.3%; with E. coli [1] (Total, n 2478) it was 14.1%; in the experiment with E. coli [1] (United Kingdom, n 180), 12.2%. Also, in the experiment with E. coli [2], the “Overall resistance in E. coli” value is recorded as 21.3%.
